Structures can show the parent of a compound that is named as a salt.

From US6613770B1, “Quinoline derivatives as NK-2 and NK-3 receptor ligands” (SmithKline Beecham S.p.A., priority 1998, dated 2003) come the findings set out here.

Regarding `C[C@H](NC(=O)c1c(CN2CCOCC2)c(-c2ccccc2)nc2ccccc12)C(C)(C)C` [Example 7, 3-Morpholin-4-ylmethyl-2-phenyl-quinoline-4-carboxylic acid ((S)-1,2,2-trimethyl-propyl)-amide], the melting point (usually the temperature of the solid-liquid transition) lay in the range of 207 to 209 °C. Turning to `CC(C)NC(=O)c1c(CN2CCN(C(C)C)CC2)c(-c2ccccc2)nc2ccccc12` (as salt: HCl) [Example 3, 3-(4-Isopropyl-piperazin-1-ylmethyl)-2-phenyl-quinoline-4-carboxylic acid isopropylamide], the melting point is 198 to 200 °C. Molecule `O=C(N[C@H]1CCCc2ccccc21)c1c(CN2CCC(N3CCC(O)CC3)CC2)c(-c2ccccc2)nc2ccccc12` [Example 5, 3-(4-Hydroxy-[1,4′]bipiperidinyl-1′-ylmethyl)-2-phenyl-quinoline-4-carboxylic acid ((S)-1,2,3,4-tetrahydro-naphthalen-1-yl)-amide] had a melting point of 144 to 146 °C. The figure for `CC(C)N1CCN(Cc2c(-c3ccccc3)nc3ccccc3c2C(=O)NC2CCCCC2)CC1` [Example 11, 3-(4-Isopropyl-piperazin-1-ylmethyl)-2-phenyl-quinoline-4-carboxylic acid cyclohexylamide] is 161 to 163 °C; for `O=C(NC1C2CC3CC(C2)CC1C3)c1c(CN2CCC(N3CCCCC3)CC2)c(-c2ccccc2)nc2ccccc12` (centres unmarked) [Example 10, 3-[1,4′]Bipiperidinyl-1′-ylmethyl-2-phenyl-quinoline-4-carboxylic acid adamantan-2-ylamide] it is 219 to 220 °C. To `CC(C)CNC(=O)c1c(CN2CCN(C(C)C)CC2)c(-c2ccccc2)nc2ccccc12` [Example 2, 3-(4-Isopropyl-piperazin-1-ylmethyl)-2-phenyl-quinoline-4-carboxylic acid isobutyl-amide] belongs 215 to 217 °C; to `CCC(CC)NC(=O)c1c(CN2CCN(C(C)C)CC2)c(-c2ccccc2)nc2ccccc12` (as salt: HCl) [Example 4, 3-(4-Isopropyl-piperazin-1-ylmethyl)-2-phenyl-quinoline-4-carboxylic acid (1-ethyl-propyl)-amide], 235 to 238 °C. To `O=C(N[C@H]1CCc2ccccc21)c1c(CN2CCC(N3CCC(O)CC3)CC2)c(-c2ccccc2)nc2ccccc12` [Example 6, 3-(4-Hydroxy-[1,4′]bipiperidinyl-1′-ylmethyl)-2-phenyl-quinoline-4-carboxylic acid (S)-indan-1-ylamide] belongs 98 to 100 °C.
